Results taken from ChEMBL document CHEMBL1201862, “PubChem BioAssay data set” (2004).
Activity calls are given as the source filed them.

Assays:
[1] = target: T1, Endoribonuclease toxin MazF (Escherichia coli K-12, UniProt P0AE70); assay: activation of MazEF endoribonuclease cleavage – biochemical, fluorescence, single-stranded RNA substrate, uHTS hits, dose response (AID 588481); format: functional
T1 sequence (P0AE70 whole entry): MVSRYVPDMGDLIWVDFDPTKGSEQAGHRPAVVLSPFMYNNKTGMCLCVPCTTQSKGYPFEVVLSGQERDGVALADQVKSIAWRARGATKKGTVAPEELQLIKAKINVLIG

[2] = target: T1, Endoribonuclease toxin MazF; assay: substrate-only fluorescence increase artefacts – biochemical, single-stranded RNase substrate, counter-screen for MazEF activator project, dose response (AID 588502); format: functional
[3] = target: T2, Carboxy-terminal domain RNA polymerase II polypeptide A small phosphatase 1 (Homo sapiens, UniProt Q9GZU7); assay: CTDSP1 inhibitors, concentration-response, biochemical, absorbance readout, ultra-high-throughput screen actives (AID 540297); format: functional
T2 sequence (Q9GZU7 whole entry): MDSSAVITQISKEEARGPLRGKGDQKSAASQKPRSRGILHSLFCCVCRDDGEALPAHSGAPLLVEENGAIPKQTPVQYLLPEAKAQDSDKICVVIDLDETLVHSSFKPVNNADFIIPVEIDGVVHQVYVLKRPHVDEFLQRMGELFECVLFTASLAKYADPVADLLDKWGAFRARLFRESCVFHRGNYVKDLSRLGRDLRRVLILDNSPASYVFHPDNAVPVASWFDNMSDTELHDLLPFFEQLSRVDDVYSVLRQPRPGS

[4] = A cytotoxicity screen of small molecule inhibitors of the PhoP region in Salmonella typhi identified in the primary screen. [Related pubchem assays: 1850, 1864, 1985 ]; format: functional
Prothrombin = Prothrombin (Homo sapiens, UniProt P00734); assay: Thrombin 1536 HTS Dose Response Confirmation. [Related pubchem assays: 1046 (Thrombin 1536 HTS; hits were confirmed in this assay)]; format: functional
HEK293 = assay: EBV LMP1 TES2 canonical NF-kB signalling blockers – cell-based, HEK293, luciferase, cherry-pick, dose response (AID 588343); format: functional; conditions: Homo sapiens
[5] = target: DNA dC->dU-editing enzyme APOBEC-3A (Homo sapiens, UniProt P31941); assay: Dose Response confirmation of small molecule APOBEC3A DNA Deaminase Inhibitors via a fluorescence-based single-stranded DNA deaminase assay. [Related pubchem assays (depositor defined):AID493011, AID493024]; format: functional
[6] = target: DNA dC->dU-editing enzyme APOBEC-3G (Homo sapiens, UniProt Q9HC16); format: functional;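 note: Dose-response counterscreen measuring inhibition of APOBEC3G DNA deaminase activity, run while confirming APOBEC3A inhibitors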
Cytochrome P450 1A2 = target: T3, Cytochrome P450 1A2 (Homo sapiens, UniProt P05177);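 note: PubChem cytochrome P450 panel assay, CYP1A2 panel member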
T3 sequence (P05177 whole entry): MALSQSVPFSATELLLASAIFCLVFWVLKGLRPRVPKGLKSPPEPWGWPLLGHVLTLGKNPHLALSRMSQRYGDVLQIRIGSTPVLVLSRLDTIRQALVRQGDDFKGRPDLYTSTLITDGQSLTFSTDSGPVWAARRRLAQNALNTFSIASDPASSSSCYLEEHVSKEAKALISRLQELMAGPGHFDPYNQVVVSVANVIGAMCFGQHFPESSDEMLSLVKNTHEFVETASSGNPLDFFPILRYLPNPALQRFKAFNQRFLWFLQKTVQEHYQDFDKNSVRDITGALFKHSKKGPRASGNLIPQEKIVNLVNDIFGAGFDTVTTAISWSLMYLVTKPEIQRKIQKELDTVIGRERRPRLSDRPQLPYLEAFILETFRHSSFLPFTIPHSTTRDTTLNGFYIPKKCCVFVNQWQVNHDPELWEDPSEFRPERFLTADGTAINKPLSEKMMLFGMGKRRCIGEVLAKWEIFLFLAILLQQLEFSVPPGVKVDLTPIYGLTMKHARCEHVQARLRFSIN

Cytochrome P450 3A4 = Cytochrome P450 3A4 (Homo sapiens, UniProt P08684);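 note: CYP3A4 tested as one member of a cytochrome P450 panel screen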
Cytochrome P450 2C9 [7] = target: T4, Cytochrome P450 2C9 (Homo sapiens, UniProt P11712)
[8] = target: Luciferin 4-monooxygenase (Photinus pyralis, UniProt P08659); assay: inhibition of purified Photinus pyralis luciferase – biochemical, luminescence, dose response (AID 1891)
[9] = Luminescence Cell-Based Dose Confirmation HTS to Identify Inhibitors of Platelet Dense Granule Release. [Related pubchem assays: 1663 (Primary HTS), 1678 (Summary of Project)]; format: functional
Paired box protein Pax-8 = Paired box protein Pax-8 (Homo sapiens, UniProt Q06710); assay: PAX8 transcriptional activity inhibition in RMG-I – RMG-I cells, luciferase, cherry-pick, dose response (AID 687027); format: functional, cell-based;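 note: luciferase reporter driven by Pax8 target thyroperoxidase promoter measured by SteadyGlo luminescence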
[10] = OVCAR8 cell viability loss – plate reader, dry powder samples, PAX8 project, dose response (AID 743197); format: functional, cell-based; conditions: OVCAR-8
Cytochrome P450 2C19 = Cytochrome P450 2C19 (Homo sapiens, UniProt P33261); assay: Cytochrome panel assay with activity outcomes. Panel member name: p450-cyp2c19 Compounds with AC50 equal or less than 10 uM are considered active; format: functional; conditions: read-out: AC50
Cytochrome P450 2C9 [11] = target: T4, Cytochrome P450 2C9; remark: listed apart in the source
[12] = target: Induced myeloid leukemia cell differentiation protein Mcl-1 (Homo sapiens, UniProt Q07820); format: functional
[13] = toxicity toward HepG2 liver cells – cell-based, plate reader, cherry-pick, antagonist series, cytotoxicity control, dose response (AID 743416); format: functional
[14] = blockers of bursicon-stimulated LGR2 cAMP reporter – cell-based, HEK293, CRE-luciferase reporter, cherry pick, set 2, dose response (AID 743343); format: functional;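 note: transfected cells were stimulated with diluted bursicon conditioned medium after compound addition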
[15] = blockade of melanocortin 4 receptor signaling – cell-based, plate reader, cherry pick, counter-screen for LGR2 antagonist project, dose response (AID 743444); format: functional;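 note: transfected HEK 293 cells stimulated with alpha-MSH peptide; potency of inhibitors of the alpha-MSH evoked signal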
[16] = viability loss in HEK293 cells – cell-based, plate reader, cherry-picked samples, cytotoxicity control, dose response (AID 743446); format: functional
[17] = test system: Streptococcus sp. 'group A'; assay: Streptococcus pyogenes SK(-)GAS viability under kanamycin – luminescence, BacTiterGlo, confirmation, counter-screen for streptokinase expression inhibitor project, dose response (AID 1900); format: functional, organism-based
Streptococcus = assay: GAS UMAA2166 growth inhibition – luminescence, BacTiterGlo, counter-screen for streptokinase expression inhibitor project, dose response (AID 1915); format: functional, organism-based;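 note: potency for reduction of bacterial viability or growth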
[18] = target: Heat shock protein HSP 90-alpha (Homo sapiens, UniProt P07900); format: functional, organism-based
Genome polyprotein = Genome polyprotein (dengue virus type 2, UniProt P29990); assay: flavivirus cap methylation enzyme inhibition – biochemical, confirmation dose response, primary screen (AID 588689); format: functional
[19] = reduction of Shn3 3'UTR-driven luciferase in osteoblasts – cell-based, Clone20 osteoblasts, firefly luciferase, cherry-picked, dose response (AID 624132); format: functional;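 note: firefly luciferase luminescence from reporter carrying the Shn3 3'UTR in osteoblasts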
[20] = loss of viability in HepG2 cells – cell-based, CellTiter-Glo, cherry-picked, cytotoxicity control for Shn3 inhibitor project, dose response (AID 624134); format: functional
[21] = non-specific 3'UTR reporter inhibition in Clone20-Shn3RL – cell-based, Renilla luciferase, cherry-picked, counter-screen for Shn3 inhibitor project, dose response (AID 624133); format: functional

Sequence of DNA dC->dU-editing enzyme APOBEC-3A (P31941 whole entry): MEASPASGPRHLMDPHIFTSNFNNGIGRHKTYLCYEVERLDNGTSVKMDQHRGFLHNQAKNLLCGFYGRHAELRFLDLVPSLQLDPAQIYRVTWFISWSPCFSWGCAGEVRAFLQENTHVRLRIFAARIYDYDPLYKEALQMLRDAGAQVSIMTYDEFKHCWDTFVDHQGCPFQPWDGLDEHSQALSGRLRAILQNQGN
Sequence of DNA dC->dU-editing enzyme APOBEC-3G (Q9HC16 whole entry): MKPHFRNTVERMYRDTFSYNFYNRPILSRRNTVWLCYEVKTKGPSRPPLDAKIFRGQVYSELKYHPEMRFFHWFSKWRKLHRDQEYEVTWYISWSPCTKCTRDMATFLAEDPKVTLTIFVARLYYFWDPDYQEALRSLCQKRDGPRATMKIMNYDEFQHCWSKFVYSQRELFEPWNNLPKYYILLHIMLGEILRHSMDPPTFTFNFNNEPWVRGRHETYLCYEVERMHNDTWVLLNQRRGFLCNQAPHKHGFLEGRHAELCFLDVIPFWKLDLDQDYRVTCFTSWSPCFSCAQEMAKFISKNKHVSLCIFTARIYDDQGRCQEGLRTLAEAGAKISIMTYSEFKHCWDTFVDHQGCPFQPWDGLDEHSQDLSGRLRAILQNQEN
T4 sequence (P11712 whole entry): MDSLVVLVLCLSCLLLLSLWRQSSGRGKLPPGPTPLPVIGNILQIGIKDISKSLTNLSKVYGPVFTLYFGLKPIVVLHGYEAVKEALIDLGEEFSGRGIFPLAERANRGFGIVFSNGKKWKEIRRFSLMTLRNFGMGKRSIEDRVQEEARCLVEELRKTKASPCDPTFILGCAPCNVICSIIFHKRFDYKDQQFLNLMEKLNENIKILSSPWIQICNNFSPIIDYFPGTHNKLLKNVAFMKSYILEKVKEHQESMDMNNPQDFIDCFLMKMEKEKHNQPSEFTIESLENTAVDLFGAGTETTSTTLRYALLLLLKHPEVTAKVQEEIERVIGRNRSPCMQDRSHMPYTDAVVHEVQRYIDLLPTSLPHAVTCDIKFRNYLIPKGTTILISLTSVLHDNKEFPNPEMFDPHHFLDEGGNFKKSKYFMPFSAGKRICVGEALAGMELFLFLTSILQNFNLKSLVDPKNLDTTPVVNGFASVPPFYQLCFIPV
Sequence of Cytochrome P450 3A4 (P08684 whole entry): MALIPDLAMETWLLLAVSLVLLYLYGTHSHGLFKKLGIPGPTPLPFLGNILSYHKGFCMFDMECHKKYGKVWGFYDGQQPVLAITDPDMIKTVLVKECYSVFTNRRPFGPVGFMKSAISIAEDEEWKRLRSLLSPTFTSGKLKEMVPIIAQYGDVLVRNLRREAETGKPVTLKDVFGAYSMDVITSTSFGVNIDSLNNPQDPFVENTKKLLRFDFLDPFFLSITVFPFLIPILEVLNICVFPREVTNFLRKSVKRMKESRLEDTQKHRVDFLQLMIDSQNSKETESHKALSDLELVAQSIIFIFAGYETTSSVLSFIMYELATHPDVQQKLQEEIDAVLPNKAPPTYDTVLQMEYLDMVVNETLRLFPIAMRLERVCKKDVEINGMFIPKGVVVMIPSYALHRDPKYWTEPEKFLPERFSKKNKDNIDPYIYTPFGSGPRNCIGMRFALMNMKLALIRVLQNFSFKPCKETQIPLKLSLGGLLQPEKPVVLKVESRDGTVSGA
Sequence of Induced myeloid leukemia cell differentiation protein Mcl-1 (Q07820 whole entry): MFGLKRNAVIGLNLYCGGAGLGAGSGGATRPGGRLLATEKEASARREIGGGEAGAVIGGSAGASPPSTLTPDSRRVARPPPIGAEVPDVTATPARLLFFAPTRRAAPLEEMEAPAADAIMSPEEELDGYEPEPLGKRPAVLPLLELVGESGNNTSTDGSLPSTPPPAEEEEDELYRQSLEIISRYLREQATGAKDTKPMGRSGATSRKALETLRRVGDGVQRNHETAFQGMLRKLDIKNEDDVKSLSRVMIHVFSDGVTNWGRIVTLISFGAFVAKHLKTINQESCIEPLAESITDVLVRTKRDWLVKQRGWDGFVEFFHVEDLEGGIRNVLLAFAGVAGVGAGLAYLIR
Sequence of Paired box protein Pax-8 (Q06710 whole entry): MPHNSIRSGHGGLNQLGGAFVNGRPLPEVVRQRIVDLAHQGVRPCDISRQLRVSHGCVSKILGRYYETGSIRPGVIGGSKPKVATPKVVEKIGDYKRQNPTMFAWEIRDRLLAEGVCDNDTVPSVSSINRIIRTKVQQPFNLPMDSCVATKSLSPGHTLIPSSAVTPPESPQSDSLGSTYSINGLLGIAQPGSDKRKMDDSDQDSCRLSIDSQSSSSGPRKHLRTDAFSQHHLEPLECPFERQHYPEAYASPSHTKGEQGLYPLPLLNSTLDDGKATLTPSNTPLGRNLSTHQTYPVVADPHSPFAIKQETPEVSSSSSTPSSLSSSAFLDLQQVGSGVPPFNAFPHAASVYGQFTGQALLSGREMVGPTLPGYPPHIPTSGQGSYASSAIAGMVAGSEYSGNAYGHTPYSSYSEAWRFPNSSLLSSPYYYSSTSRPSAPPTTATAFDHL
Sequence of Genome polyprotein (P29990 2492-3391 limits assumed): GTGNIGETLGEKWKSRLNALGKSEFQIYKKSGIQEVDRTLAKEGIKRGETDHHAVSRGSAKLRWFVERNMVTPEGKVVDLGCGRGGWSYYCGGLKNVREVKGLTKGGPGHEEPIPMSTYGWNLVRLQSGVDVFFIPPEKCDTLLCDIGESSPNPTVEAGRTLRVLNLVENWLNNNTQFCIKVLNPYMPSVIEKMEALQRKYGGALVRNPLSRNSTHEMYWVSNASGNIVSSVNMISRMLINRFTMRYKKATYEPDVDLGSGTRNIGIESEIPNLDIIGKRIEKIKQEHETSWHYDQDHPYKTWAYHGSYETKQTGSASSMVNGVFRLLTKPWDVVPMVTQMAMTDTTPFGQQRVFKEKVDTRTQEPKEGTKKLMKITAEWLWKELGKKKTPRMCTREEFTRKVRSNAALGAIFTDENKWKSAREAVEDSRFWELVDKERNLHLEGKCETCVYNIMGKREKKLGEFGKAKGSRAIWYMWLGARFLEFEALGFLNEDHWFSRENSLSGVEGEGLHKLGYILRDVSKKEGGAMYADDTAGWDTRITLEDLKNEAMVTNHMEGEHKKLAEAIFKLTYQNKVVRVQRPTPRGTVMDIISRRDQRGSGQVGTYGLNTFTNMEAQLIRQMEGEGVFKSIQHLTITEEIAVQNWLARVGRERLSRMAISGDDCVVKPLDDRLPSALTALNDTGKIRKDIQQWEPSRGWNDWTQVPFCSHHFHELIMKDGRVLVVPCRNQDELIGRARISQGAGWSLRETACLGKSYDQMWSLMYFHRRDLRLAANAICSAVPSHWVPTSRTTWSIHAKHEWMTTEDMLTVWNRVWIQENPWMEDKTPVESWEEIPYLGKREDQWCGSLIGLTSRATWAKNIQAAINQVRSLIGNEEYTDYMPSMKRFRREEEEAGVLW
Sequence of Cytochrome P450 2C19 (P33261 whole entry): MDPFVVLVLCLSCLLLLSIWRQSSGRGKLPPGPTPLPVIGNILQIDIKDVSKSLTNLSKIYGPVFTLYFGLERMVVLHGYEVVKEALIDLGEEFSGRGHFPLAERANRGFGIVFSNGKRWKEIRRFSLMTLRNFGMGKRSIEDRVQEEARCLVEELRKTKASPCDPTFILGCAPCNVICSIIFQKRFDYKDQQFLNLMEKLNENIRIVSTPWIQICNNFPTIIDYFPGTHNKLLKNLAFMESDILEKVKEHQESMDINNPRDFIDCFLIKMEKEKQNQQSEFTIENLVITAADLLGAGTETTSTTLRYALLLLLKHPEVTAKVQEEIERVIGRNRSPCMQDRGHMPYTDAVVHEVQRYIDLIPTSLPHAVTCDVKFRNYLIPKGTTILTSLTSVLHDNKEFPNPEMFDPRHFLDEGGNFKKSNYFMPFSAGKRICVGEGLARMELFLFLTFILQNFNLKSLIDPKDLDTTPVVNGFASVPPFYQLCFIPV
Sequence of Luciferin 4-monooxygenase (P08659 whole entry): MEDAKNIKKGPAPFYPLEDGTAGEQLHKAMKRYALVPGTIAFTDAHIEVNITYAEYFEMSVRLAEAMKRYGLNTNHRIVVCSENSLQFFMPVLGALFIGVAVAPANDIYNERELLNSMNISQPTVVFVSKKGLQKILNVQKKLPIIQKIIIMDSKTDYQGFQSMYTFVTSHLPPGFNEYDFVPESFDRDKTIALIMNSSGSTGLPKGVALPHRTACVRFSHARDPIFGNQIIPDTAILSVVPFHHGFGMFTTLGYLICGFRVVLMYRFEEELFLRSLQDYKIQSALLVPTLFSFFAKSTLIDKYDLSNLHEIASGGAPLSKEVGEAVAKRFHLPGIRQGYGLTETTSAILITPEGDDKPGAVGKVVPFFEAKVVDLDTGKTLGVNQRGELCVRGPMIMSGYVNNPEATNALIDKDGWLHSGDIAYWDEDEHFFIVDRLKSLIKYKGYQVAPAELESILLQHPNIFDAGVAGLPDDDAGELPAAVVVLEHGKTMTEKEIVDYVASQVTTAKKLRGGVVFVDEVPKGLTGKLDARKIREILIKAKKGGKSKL

Cc1ccc(C=C2C(=O)c3ccccc3C2=O)o1
EC50 [1]: > 99 µM (inactive)
EC50 [2]: 85.2 µM (inactive)
IC50 [3]: 6.25 µM (active)

CN(Cc1ccccc1)CC(O)COc1ccc(CNCCCOc2cccnc2)cc1 (stereo not drawn)
EC50 [4]: > 50 µM (active)

Cc1cc2ncn(C(=O)c3ccc4c(c3)OCO4)c2cc1C
IC50 (Prothrombin): 5.76 µM (active)

Cc1ccc(NC(=O)c2sccc2C)cc1[N+](=O)[O-]
EC50 [4]: > 50 µM (active)

CC(C)c1ccc2oc(=O)cc(CN3CCN(c4ccc(F)cc4)CC3)c2c1
EC50 [4]: > 50 µM (active)

Cc1ccc(-n2c(C)c([N+](=O)[O-])c3ccc(O)c(CN(C)C)c32)cc1
AC50 (HEK293): 8.54 µM (active)

COC(=O)C1=C(C)N(Cc2ccccc2)C(NCCCCO)=N[C@H]1c1cccc(C(F)(F)F)c1
IC50 [5]: 4.94 µM (active)
IC50 [6]: 7.1 µM (active)

CCCCC(=O)NC(=S)Nc1cccc(NC(=O)CC)c1
AC50 (Cytochrome P450 1A2): 15.8 µM (inconclusive)
AC50 (Cytochrome P450 3A4): 20 µM (inconclusive)
AC50 (Cytochrome P450 2C9 [7]): inconclusive

Nc1c(C(=O)C2CC2)sc2nc(-c3cccs3)cc(C(F)(F)F)c12
EC50 [1]: > 99 µM (inactive)
EC50 [2]: 10.6 µM (active)

CC(=O)c1c(C)[nH]c(C(=O)CSc2nnc(-c3ccc(Cl)cc3)n2CC2CCCO2)c1C (stereo not drawn)
EC50 [4]: > 50 µM (active)
EC50 [8]: > 112 µM (not active)
EC50 [9]: > 112 µM (not active)

COc1ccc(CN2[C@H](CO)[C@H]3c4ccccc4NC[C@H]32)cc1
AC50 (Paired box protein Pax-8): 11.2 µM (active)
AC50 [10]: > 70 µM (inactive)

CN1C(=O)NC(c2ccc(O)cc2)C(C(=O)c2cccs2)C1(O)C(F)(F)F (stereo not drawn)
EC50 [4]: > 50 µM (active)
AC50 (Cytochrome P450 2C19): 15.8 µM (inconclusive)
AC50 (Cytochrome P450 3A4): 25.1 µM (inconclusive)
AC50 (Cytochrome P450 2C9 [11]): 39.8 µM (inconclusive)

CC(C[N+](C)(C)C)OC(=O)C1(c2ccccc2)CCCC1 (stereo not drawn)
IC50 [5]: 2.56 µM (active)
IC50 [6]: 3.58 µM (active)

NC(=O)c1ccc(-n2nnnc2SCC(=O)Nc2ccccc2F)cc1
EC50 [1]: > 99 µM (inactive)
EC50 [2]: > 99 µM (inactive)

Cn1cnc(C(=O)N2CCN(c3ccccc3)CC2)c1C(=O)N1CCN(c2ccccc2)CC1
IC50 [5]: 2.75 µM (active)
IC50 [6]: 6.53 µM (active)
IC50 [3]: 7.05 µM (active)

Cc1ccc(/C=C2\SC(=S)N(CCC(=O)Nc3cccnc3)C2=O)cc1
EC50 [1]: > 99 µM (inactive)
EC50 [2]: > 99 µM (inactive)

COc1cc(C2C3=C(O)c4ccccc4C3=Nc3nc(N)nc(O)c32)ccc1O (stereo not drawn)
IC50 [12]: 2.76 µM (active)

O=C1CCCC(O)=C1Sc1ccccc1C(=O)O
IC50 [5]: 13.3 µM (active)
IC50 [6]: 43.8 µM (active)

O=C(Nc1ccccc1)c1cn2ccccc2n1
AC50 (HEK293): 3.47 µM (active)
AC50 [13]: > 52 µM (inactive)
AC50 [14]: 6.06 µM (active)
AC50 [15]: 6.74 µM (active)
AC50 [16]: 48.4 µM (active)

O=[N+]([O-])c1ccc(N2CCNCC2)cc1NCc1cccnc1
EC50 [4]: > 50 µM (active)

CC1=C(C(=O)Nc2ccccc2)C(c2ccc(O)cc2)N2C(=O)CSC2=N1 (stereo not drawn)
IC50 (Prothrombin): 25.2 µM (active)

CCN(c1ccc(NC(=O)COC(=O)/C=C/c2cccs2)cc1)C(C)C
IC50 [12]: 3.34 µM (active)

O=C(Nc1nc(-c2ccccn2)cs1)c1ncc(Cl)c(Cl)c1Cl
EC50 [17]: 0.39 µM (active)
EC50 (Streptococcus): 1.64 µM (active)
AC50 [18]: 3.55 µM (active)

O=C1C(=Cc2cccn2-c2ccc(O)cc2)C(=O)c2ccccc21
EC50 [1]: > 99 µM (inactive)
EC50 [2]: 50.3 µM (inactive)
IC50 (Genome polyprotein): 10.1 µM (active)

O=C(NOCc1ccccc1)c1ccc(Cl)cc1Cl
AC50 (HEK293): 3.33 µM (active)

CCN1C[C@]2(COC(=O)c3ccccc3N3C(=O)C[C@H](C)C3=O)CC[C@H](OC)[C@]34[C@@H]5C[C@@H]6[C@H](OC)[C@H]5[C@](O)(C[C@@H]6OC)C(O)([C@@H]13)[C@@H](OC)[C@@H]24
AC50 (Cytochrome P450 1A2): 39.8 µM (inconclusive)
AC50 (Cytochrome P450 2C9 [7]): inconclusive

CCN1C(NCCOC)=N[C@@H](c2cccs2)C(C(=O)OC)=C1C
IC50 [5]: 4.37 µM (active)
IC50 [6]: 8.01 µM (active)

COc1ccccc1OC(C)C(=O)N1CCN(Cc2ccc3c(c2)OCO3)CC1 (stereo not drawn)
IC50 [5]: 7.43 µM (active)
IC50 [6]: 8.33 µM (active)

CN(C)c1ccc(C=Cc2ccnc3c(O)cccc23)cc1
AC50 (HEK293): 10 µM (active)
AC50 [19]: 1.43 µM (active)
AC50 [20]: 52.7 µM (active)
AC50 [21]: 2.57 µM (active)

O=C(c1ccccc1)n1nnc2ccccc21
IC50 (Prothrombin): 0.431 µM (active)

CCN1CCN(CC(=O)c2cc(OC)c(OC)c(OC)c2)CC1
IC50 (Prothrombin): > 50 µM (not active)
